Test results as given in patent EP0745595A1, “3-(3-Aryloxyphenyl)-1-(substituted methyl)-s-triazine-2,4,6-oxo or thiotrione herbicidal agents” (American Cyanamid Company, priority 1995, dated 1996).

How the values were obtained:
Type in all cases: in vivo
CHENOPODIUM ALBUM, L. [1] = experiment: Preemergence herbicidal evaluation, CHEAL (Lambsquarters, Common); details: rated four to five weeks after treatment
Method in brief: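 Greenhouse preemergence test; treated soil cups received compound in aqueous acetone (about 0.125 to 0.50 kg/ha) right after sowing and were assessed visually 4-5 weeks later on a 0-9 scale compared with control plants.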

[2] = tested on: TRITICUM AESTIVUM, CV. APOLLO; experiment: Preemergence herbicidal evaluation, TRZAWO (Wheat, Winter, CV. APOLLO); details: rated four to five weeks after treatment
Source text: (§1) Results of herbicide evaluation are expressed on a rating scale (0-9). The scale is based upon a visual observation of plant stand, vigor, malformation, size, chlorosis and overall plant appearance as compared with a control.
(§2) The preemergence herbicidal activity of the test compounds of the present invention is exemplified by the following tests in which the seeds of a variety of monocotyledonous and dicotyledonous plants are separately mixed with potting soil and planted on top of approximately one inch of soil in separate pint cups. […] The treated cups are then placed on greenhouse benches, watered and cared for in accordance with conventional greenhouse procedures. From four to five weeks after treatment, the tests are terminated and each cup is examined and rated according to the rating system provided in Example 40.
(§3) The compounds evaluated are reported by compound number given in Example 40.

[3] = tested on: ECHINOCHLOA ORYZOIDES (ARD.)FRITSCH; experiment: Preemergence weed control under flooded paddy conditions, ECHORC (Watergrass (Calif.)); details: preemergence, 3-4 weeks after treatment
Method in brief: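 Seeds or propagules were planted 0.5 cm deep in silt loam, with flood water held at 1.5 to 3 cm. Compound in 50/50 aqueous/acetone was pipetted into the flood water at about 0.5, 0.25, 0.125 and 0.063 kg/ha. Injury was rated visually on a 0-9 scale against a control 3-4 weeks after treatment.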

[4] = tested on: ORYZA SATIVA, L. TEBONNET; experiment: Rice tolerance to post-transplant applications under flooded paddy conditions, ORYSAT (Rice, Tebonnet); details: post-transplant rice, 3-4 weeks after treatment
Method in brief: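 Two ten-day-old Tebonnet rice seedlings transplanted into silt loam, flooded 1.5–3 cm; three days later the water surface treated with compounds in acetone/water at about 0.5, 0.25, 0.125 and 0.063 kg/ha. Visual 0–9 injury rating versus control after 3–4 weeks in greenhouse.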

[5] = tested on: ABUTILON THEOPHRASTI, MEDIC.; experiment: Postemergence herbicidal evaluation, ABUTH (Velvetleaf)
Method in brief: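 Velvetleaf (Abutilon theophrasti) seedlings were raised in jiffy flats for about two weeks and then sprayed postemergence. The test compound was dispersed in a 50/50 acetone/water mixture containing 0.5% TWEEN®20 and applied through a nozzle operating at 40 psi. Plants were kept on greenhouse benches and rated 0-9 four to five weeks after treatment.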

[6] = tested on: AMBROSIA ARTEMISIIFOLIA, L.; experiment: Postemergence herbicidal evaluation, AMBEL (Ragweed, Common)
Method in brief: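 Common ragweed (Ambrosia artemisiifolia) seedlings were raised in jiffy flats for roughly two weeks, then sprayed postemergence through a nozzle at 40 psi with the test compound dispersed in 50/50 acetone/water carrying 0.5% TWEEN®20. The plants were kept on greenhouse benches under conventional care. Four to five weeks later, injury was rated visually on a 0-9 scale, and repeat tests were averaged.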

CASSIA OBTUSIFOLIA, L. [7] = experiment: Postemergence herbicidal evaluation, CASOB (Sicklepod); design: key to CASOB rating / Herbicidal effect rating, CASOB / CASOB: 0-9 visual rating scale vs untreated control
Method in brief: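 Visual 0–9 scores reflect stand, vigor, malformation, size, chlorosis and overall appearance relative to control, taken 4–5 weeks after spraying two-week-old seedlings with about 0.125–0.500 kg/ha compound in acetone/water/TWEEN 20.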

CHENOPODIUM ALBUM, L. [8] = experiment: Postemergence herbicidal evaluation, CHEAL (Lambsquarters, Common)
Method in brief: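 Seedlings of common lambsquarters (Chenopodium album) were raised in jiffy flats for roughly two weeks, then sprayed postemergence through a nozzle at 40 psi with test compound dispersed in 50/50 acetone/water containing 0.5% TWEEN®20 surfactant. Plants were kept on greenhouse benches under standard care and rated visually on a 0-9 scale versus controls.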

IPOMOEA SPP. [9] = experiment: Postemergence herbicidal evaluation, IPOSS (Morningglory spp.)
Method in brief: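 Seedlings of morningglory (Ipomoea spp.) were raised in jiffy flats for roughly two weeks. They were then sprayed postemergence through a nozzle at 40 psi with test compound dispersed in 50/50 acetone/water containing 0.5% TWEEN®20 surfactant. Plants were kept on greenhouse benches under standard care and visually rated 0-9 against controls four to five weeks after treatment.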

[10] = tested on: SETARIA VIRIDIS, (L) BEAU; experiment: Postemergence herbicidal evaluation, SETVI (Foxtail, Green); design: key to SETVI rating / Herbicidal effect rating, SETVI / SETVI: 0-9 visual rating scale vs untreated control
Method in brief: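 Greenhouse postemergence test. Seedlings (~2 wk) sprayed at 40 psi; dose ~0.125–0.500 kg/ha in acetone/water (1:1), 0.5% TWEEN 20. Scored 0–9 at 4–5 wk.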

[11] = tested on: TRITICUM AESTIVUM, CV. APOLLO; experiment: Postemergence herbicidal evaluation, TRZAWO (Wheat, Winter, CV. APOLLO)
Method: In the tests, seedling plants are grown in jiffy flats for about two weeks. The test compounds are dispersed in 50/50 acetone/water mixtures containing 0.5% TWEEN®20, a polyoxyethylene sorbitan monolaurate surfactant of Atlas Chemical Industries, […] through a spray nozzle operating at 40 psi for a predetermined time. After spraying, the plants are placed on greenhouse benches and are cared for in the usual manner, commensurate with conventional greenhouse practices. From four to five weeks after treatment, the seedling plants are examined and rated according to the rating system set forth below. Where more than one test is involved for a given compound, the data are averaged.
(§4) Plant species employed in these evaluations are reported by header abbreviation, common name and scientific name.
as §1

ZEA MAYS L. [12] = experiment: Postemergence herbicidal evaluation, ZEAMX (Corn, Field)
Method: In the tests, seedling plants are grown in jiffy flats for about two weeks. The test compounds are dispersed in 50/50 acetone/water mixtures containing 0.5% TWEEN®20, a polyoxyethylene sorbitan monolaurate surfactant of Atlas Chemical Industries, […] to the plants through a spray nozzle operating at 40 psi for a predetermined time. After spraying, the plants are placed on greenhouse benches and are cared for in the usual manner, commensurate with conventional greenhouse practices. From four to five weeks after treatment, the seedling plants are examined and rated according to the rating system set forth below. Where more than one test is involved for a given compound, the data are averaged.
as §4, §1

[13] = tested on: AMBROSIA ARTEMISIIFOLIA, L.; experiment: Preemergence herbicidal evaluation, AMBEL (Ragweed, Common); details: rated four to five weeks after treatment
Source text: as §1, §2, §3

CASSIA OBTUSIFOLIA, L. [14] = experiment: Preemergence herbicidal evaluation, CASOB (Sicklepod); details: rated four to five weeks after treatment
Source text: as §1, §2, §3

IPOMOEA SPP. [15] = experiment: Preemergence herbicidal evaluation, IPOSS (Morningglory spp.); details: rated four to five weeks after treatment
Source text: as §1, §2, §3

ZEA MAYS L. [16] = experiment: Preemergence herbicidal evaluation, ZEAMX (Corn, Field); details: rated four to five weeks after treatment
Source text: as §1, §2, §3

Compound: COC(=O)Cn1c(=O)n(C)c(=O)n(-c2cc(Oc3ccc(Cl)cc3Cl)ccc2Br)c1=O [Compound 43, Methyl 3-[2-bromo-5-(2,4-dichlorophenoxy)-phenyl]tetrahydro-5-methyl-2,4,6-trioxo-s-triazine-1(2H)-acetate]
- CHEAL herbicidal rating (CHENOPODIUM ALBUM, L. [1]; Rate 0.125 kg/ha): 9.0
- CHEAL herbicidal rating (CHENOPODIUM ALBUM, L. [1]; Rate 0.250 kg/ha): 9.0
- CHEAL herbicidal rating (CHENOPODIUM ALBUM, L. [1]; Rate 0.500 kg/ha): 9.0
- TRZAWO herbicidal rating ([2]; Rate 0.125 kg/ha): 0.5
- TRZAWO herbicidal rating ([2]; Rate 0.250 kg/ha): 0.5
- TRZAWO herbicidal rating ([2]; Rate 0.500 kg/ha): 0.5
- Herbicidal effect rating, ECHORC ([3]; 0.063 kg/ha): 9.0
- Herbicidal effect rating, ECHORC ([3]; 0.125 kg/ha): 9.0
- Herbicidal effect rating, ECHORC ([3]; 0.250 kg/ha): 9.0
- Herbicidal effect rating, ECHORC ([3]; 0.500 kg/ha): 9.0
- Herbicidal effect rating, ORYSAT ([4]; 0.063 kg/ha): 2.0
- Herbicidal effect rating, ORYSAT ([4]; 0.125 kg/ha): 3.0
- Herbicidal effect rating, ORYSAT ([4]; 0.250 kg/ha): 4.0
- Herbicidal effect rating, ORYSAT ([4]; 0.500 kg/ha): 4.0

Compound: COC(=O)Cn1c(=O)n(C)c(=O)n(-c2cc(Oc3ncc(C(F)(F)F)cc3Cl)ccc2Br)c1=O [Compound 45]
- ABUTH rating ([5]; Rate 0.125 kg/ha): 9.0
- ABUTH rating ([5]; Rate 0.250 kg/ha): 9.0
- ABUTH rating ([5]; Rate 0.500 kg/ha): 9.0
- AMBEL rating ([6]; Rate 0.125 kg/ha): 9.0
- AMBEL rating ([6]; Rate 0.250 kg/ha): 9.0
- AMBEL rating ([6]; Rate 0.500 kg/ha): 9.0
- CASOB rating (CASSIA OBTUSIFOLIA, L. [7]; Rate 0.125 kg/ha): 9.0
- CASOB rating (CASSIA OBTUSIFOLIA, L. [7]; Rate 0.250 kg/ha): 9.0
- CASOB rating (CASSIA OBTUSIFOLIA, L. [7]; Rate 0.500 kg/ha): 9.0
- CHEAL rating (CHENOPODIUM ALBUM, L. [8]; Rate 0.125 kg/ha): 9.0
- CHEAL rating (CHENOPODIUM ALBUM, L. [8]; Rate 0.250 kg/ha): 9.0
- CHEAL rating (CHENOPODIUM ALBUM, L. [8]; Rate 0.500 kg/ha): 9.0
- IPOSS rating (IPOMOEA SPP. [9]; Rate 0.125 kg/ha): 9.0
- IPOSS rating (IPOMOEA SPP. [9]; Rate 0.250 kg/ha): 9.0
- IPOSS rating (IPOMOEA SPP. [9]; Rate 0.500 kg/ha): 9.0
- SETVI rating ([10]; Rate 0.125 kg/ha): 9.0
- SETVI rating ([10]; Rate 0.250 kg/ha): 9.0
- SETVI rating ([10]; Rate 0.500 kg/ha): 9.0
- TRZAWO rating ([11]; Rate 0.125 kg/ha): 9.0
- TRZAWO rating ([11]; Rate 0.250 kg/ha): 9.0
- TRZAWO rating ([11]; Rate 0.500 kg/ha): 9.0
- ZEAMX rating (ZEA MAYS L. [12]; Rate 0.125 kg/ha): 9.0
- ZEAMX rating (ZEA MAYS L. [12]; Rate 0.250 kg/ha): 9.0
- ZEAMX rating (ZEA MAYS L. [12]; Rate 0.500 kg/ha): 9.0
- AMBEL herbicidal rating ([13]; Rate 0.125 kg/ha): 0.0
- AMBEL herbicidal rating ([13]; Rate 0.250 kg/ha): 0.0
- AMBEL herbicidal rating ([13]; Rate 0.500 kg/ha): 0.0
- CASOB herbicidal rating (CASSIA OBTUSIFOLIA, L. [14]; Rate 0.125 kg/ha): 0.0
- CASOB herbicidal rating (CASSIA OBTUSIFOLIA, L. [14]; Rate 0.250 kg/ha): 0.0
- CASOB herbicidal rating (CASSIA OBTUSIFOLIA, L. [14]; Rate 0.500 kg/ha): 0.0
- CHEAL herbicidal rating (CHENOPODIUM ALBUM, L. [1]; Rate 0.125 kg/ha): 9.0
- CHEAL herbicidal rating (CHENOPODIUM ALBUM, L. [1]; Rate 0.250 kg/ha): 9.0
- CHEAL herbicidal rating (CHENOPODIUM ALBUM, L. [1]; Rate 0.500 kg/ha): 9.0
- IPOSS herbicidal rating (IPOMOEA SPP. [15]; Rate 0.125 kg/ha): 0.0
- IPOSS herbicidal rating (IPOMOEA SPP. [15]; Rate 0.250 kg/ha): 0.0
- IPOSS herbicidal rating (IPOMOEA SPP. [15]; Rate 0.500 kg/ha): 0.0
- ZEAMX herbicidal rating (ZEA MAYS L. [16]; Rate 0.125 kg/ha): 0.0
- ZEAMX herbicidal rating (ZEA MAYS L. [16]; Rate 0.250 kg/ha): 0.0
- ZEAMX herbicidal rating (ZEA MAYS L. [16]; Rate 0.500 kg/ha): 0.0
- Herbicidal effect rating, ORYSAT ([4]; 0.063 kg/ha): 2.0
- Herbicidal effect rating, ORYSAT ([4]; 0.125 kg/ha): 2.0
- Herbicidal effect rating, ORYSAT ([4]; 0.250 kg/ha): 4.0
- Herbicidal effect rating, ORYSAT ([4]; 0.500 kg/ha): 6.0
